Data published in patent publication US20090048243A1, “THERAPEUTIC AGENT FOR ATTENTION-DEFICIT HYPERACTIVITY DISORDER” (MITSUBISHI PHARMA CORPORATION, priority 2005, published 2009).
pIC50, pKi: −log10 of the molar value. Counter-ions that a name gives are not always drawn. Like-named read-outs stand apart in the source and are kept apart here.

Legend:
[1] = test system: rats with juvenile dopamine neulolysis due to 6-OH-DA treatment; assay: Suppressive effect on increased motor activity in rats with juvenile dopamine neulolysis due to 6-OH-DA treatment; assay type: in vivo, rat; conditions: for ED50: Rattus norvegicus, read-out: ED50 for the suppression of increased motor activity due to the 6-OH-DA treatment as 100%; for Effect on increased motor activity due to the 6-OH-DA treatment: compound A 1, 3 or 10 mg/kg, Atomoxetine 1, 3, 10 or 30 mg/kg, vs 0.5% HPMC control
Experimental: Suppressive effect on increased motor activity in rats with juvenile dopamine neulolysis due to 6-OH-DA treatment Male SD rats (Charles River Japan) were pre-treated with desipramine (Sigma Ltd.) in accordance with the method of Zhang et al. (Neuropsychopharmacology 2001 November;25(5):624-32) on day 5 after birth, after which 6-hydroxydopamine (hereinafter referred to as 6-OH-DA) (Sigma Ltd.) was administered to the cerebral ventricle on one side. During 12 to 18 days after birth, acclimation to a motor activity measurement apparatus (Toyo Sangyo) was performed three times; on day 19 after birth, motor activity was measured and the animals were grouped. […] For control, 0.5% HPMC (hydroxypropylmethylcellulose) was orally administered.

normal rats = assay: Effect on motor activity in normal rats; assay type: in vivo, rat; conditions: oral (FIG. 1-B)
[2] = test system: norepinephrine uptake into mouse cerebral synaptosome; assay: Norepinephrine uptake inhibitory action in crude synaptosome fraction; assay type: biochemical; conditions: male ddy mouse hyppocampus synaptosome; tritiated norepinephrine; 37° C., 10 minutes; read-out: 50% inhibitory concentration (IC50) for norepinephrine uptake into mouse cerebral synaptosome
Experimental: Using a publicly known method (Journal of Pharmacology and Experimental Therapeutics, Vol.165, p.78, 1969) with partial modification, norepinephrine uptake inhibitory action was measured.
A crude synaptosome fraction was separated from the hyppocampus of a male ddy mouse, suspended in Krebs-Henseleit buffer solution (pH 7.4), and used in the experiments. Next, each test compound at several different concentrations was added to the synaptosome suspension and pre-incubated for 5 minutes, after which tritiated norepinephrine (Japan Radioisotope) was added to the reaction liquor, and they were reacted at 37° C. for 10 minutes. After the reaction, the reaction liquor was suction-filtered through a Whatman GF/B filter (NeuroScience, Inc.), and the filter was washed with Krebs-Henseleit buffer solution (pH 7.4), after which radioactivity remaining in the filter was measured using a liquid scintillation counter (Packard company, 3380 model). Norepinephrine concentration dependent uptake was obtained by subtracting the uptake at 0° C. from the uptake at 37° C. 50% inhibitory concentrations were graphically calculated, and inhibition constants (Ki values) were determined.

5-HT2A receptor = target: T1, 5-HT2A receptor (Rattus norvegicus, UniProt P14842); assay: Specific 5-HT2A receptor binding test (tritiated ketanserin, cerebral cortex crude synaptosome fraction); conditions: Wistar rat cerebral cortex synaptosome; tritiated ketanserin 0.2 nmol/L; 37° C., 20 minutes
T1 construct: A crude synaptosome fraction was separated from the cerebral cortex of Wistar rats; from tissue; host or cells: Wistar rat cerebral cortex, crude synaptosome fraction
Experimental: A specific 5-HT2A receptor binding test was performed in accordance with a publicly known method (Molecular Pharmacology, Vol.21, p.301, 1981).
A crude synaptosome fraction was separated from the cerebral cortex of Wistar rats at 6 to 12 weeks of age (SEAC Yoshitomi), suspended in 50 mmol/L tris-HCl buffer solution (pH 7.7) (Nacalai Tesque, Inc.), and used in the experiments. Next, each test compound at several different concentrations and tritiated ketanserin (final concentration 0.2 nmol/L) (Japan Radioisotope) were added to the synaptosome suspension, and they were reacted at 37° C. for 20 minutes. After the reaction, the reaction liquor was suction-filtered through a Whatman GF/B filter (NeuroScience, Inc.), and the filter was washed with 50 mmol/L tris-HCl buffer solution (pH 7.7), after which radioactivity remaining in the filter was measured using a liquid scintillation counter (Aloka Co., Ltd.). Non-specific binding was determined in the presence of 10^−5 mmol/L mianserin (Sigma Ltd.). 50% inhibitory concentrations were graphically calculated, and inhibition constants (Ki values) were determined.

T1 sequence (P14842 whole entry): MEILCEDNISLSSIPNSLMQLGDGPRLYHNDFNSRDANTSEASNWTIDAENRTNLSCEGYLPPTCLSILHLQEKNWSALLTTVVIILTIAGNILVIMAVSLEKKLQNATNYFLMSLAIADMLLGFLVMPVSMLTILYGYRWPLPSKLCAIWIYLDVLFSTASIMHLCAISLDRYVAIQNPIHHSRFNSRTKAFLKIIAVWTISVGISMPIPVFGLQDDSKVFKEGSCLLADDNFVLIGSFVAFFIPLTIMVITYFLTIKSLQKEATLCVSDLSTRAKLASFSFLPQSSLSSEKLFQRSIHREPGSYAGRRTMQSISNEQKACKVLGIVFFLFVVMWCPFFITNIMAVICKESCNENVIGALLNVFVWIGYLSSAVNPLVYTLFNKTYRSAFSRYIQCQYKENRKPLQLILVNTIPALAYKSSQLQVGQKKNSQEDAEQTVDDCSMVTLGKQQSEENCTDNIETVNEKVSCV

| Structure (SMILES) | ED50 ([1]; po) | Effect on increased motor activity due to the 6-OH-DA treatment ([1]; oral) | Suppression of motor activity in normal rats (normal rats) | pIC50 [2] | pKi (5-HT2A receptor) | ED50 ([1]; oral, motor activity during 30 minutes following 1 hour after administration, linear regression) | Dose from which a significant difference in suppression of increased motor activity was observed ([1]; oral, P<0.01 versus control (Dunnett method)) |
| --- | --- | --- | --- | --- | --- | --- | --- |
| CNCCC(Oc1ccccc1C)c1ccccc1.Cl (single isomer, unassigned; (-)) [Atomoxetine, (−)-N-methyl-3-((2-methylphenyl)oxy)-3-phenyl-1-aminopropane hydrochloride, reference compound] | 24 mg/kg | dose-dependently suppressed, but no significant suppression was observed | – | – | – | – | – |
| c1csc(Cc2ccccc2OC[C@@H]2CNCCO2)c1 [compound A, S-2-[[o-(2-thenyl)phenoxy]methyl]morpholine maleic acid salt] | – | dose-dependently inhibited | no significant suppression of motor activity was observed | 8.59 | 7.59 | 1.7 mg/kg | ≥ 3 mg/kg |
| c1csc(Cc2ccccc2OC[C@H]2CNCCO2)c1 [B, R-2-[[o-(2-thenyl)phenoxy]methyl]morpholine maleic acid salt] | – | – | – | 7.48 | 6.00 | – | – |
| c1csc(Cc2ccccc2OCC2CNCCO2)c1 (racemic) [teniloxazine, (±)-2-[[o-(2-thenyl)phenoxy]methyl]morpholine maleic acid salt, reference compound] | – | – | – | 7.92 | 7.31 | – | – |
